Where two headings read alike, the source gives them in different places.
Experiments:
[1] = molecular target: farnesyl protein transferase (Homo sapiens, UniProt P49354+P49356); assay: FPT IC50, inhibition of farnesyl protein transferase, in vitro enzyme assay; type: biochemical; details: range stated jointly for the listed compounds
Method: (§1) FPT IC50 (inhibition of farnesyl protein transferase, in vitro enzyme assay) and COS Cell IC50 (Cell-Based Assay) were determined following the assay procedures described in WO 95/10516, published April 20, 1995. GGPT IC50 (inhibition of geranylgeranyl protein transferase, in vitro enzyme assay), Cell Mat Assay, and anti-tumor activity (in vivo anti-tumor studies) could be determined by the assay procedures described in WO 95/ 10516. The disclosure of WO 95/ 10516 is incorporated herein by reference thereto.

[2] = system: COS Cell; assay: COS Cell IC50 (Cell-Based Assay); details: range stated jointly for the listed compounds
Method: as §1

[3] = system: Human tumor cells; assay: Soft Agar Assay (anchorage-independent growth); type: cell-based; details: range stated jointly for the listed compounds, upper end printed as >500
Method: Anchorage-independent growth is a characteristic of tumorigenic cell lines. Human tumor cells are suspended in growth medium containing 0.3% agarose and an indicated concentration of a farnesyl transferase inhibitor. The solution is overlayed onto growth medium solidified with 0.6% agarose containing the same concentration of farnesyl transferase inhibitor as the top layer. After the top layer is solidified, plates are incubated for 10-16 days at 37°C under 5% CO2 to allow colony outgrowth. After incubation, the colonies are stained by overlaying the agar with a solution of MTT (3-[4,5-dimethylthiazol-2-yl]-2,5-diphenyltetrazolium bromide, Thiazolyl blue) (1 mg/mL in PBS). Colonies can be counted and the IC50's can be determined.

[4] = H-ras, read-out: FPT IC50 (H-ras)
[5] = K-ras, read-out: FPT IC50 (K-ras)

SMILES	IC50 [1, 5] [nM]	IC50 [1, 4] [nM]	IC50 [2] [nM]	IC50 [3] [nM]
O=C(CC1CCN(c2nnnn2-c2ccccc2)CC1)N1CCC([C@H]2c3ncc(Br)cc3CCc3cc(Cl)cc(Br)c32)CC1 [Compound 2.0]		4.6 to 140		
O=C(CC1CCN(c2nccs2)CC1)N1CCC([C@H]2c3ncc(Br)cc3CCc3cc(Cl)cc(Br)c32)CC1 [Compound 3.0]		4.6 to 140		
O=C(CC1CCN(c2ncccn2)CC1)N1CCC([C@H]2c3ncc(Br)cc3CCc3cc(Cl)cc(Br)c32)CC1 [Compound 6.0]		4.6 to 140	35 to 120	
CC(=O)OC[C@H]1O[C@@H](N2CCC(CC(=O)N3CCC([C@H]4c5ncc(Br)cc5CCc5cc(Cl)cc(Br)c54)CC3)CC2)[C@H](OC(C)=O)[C@@H](OC(C)=O)[C@@H]1OC(C)=O [Compound 9.3, (+) -4-(3,10-dibromo-8-chloro-6,11-dihydro-5H-benzo[5,6]cyclohepta[1,2-b]pyridin-11-yl)-1-[[1-[2,3,4,6-tetra-O-acetyl-1-beta-D-glucopyranosyl]-4-piperidinyl]acetyl]piperidine]	29 to 91	4.6 to 140	35 to 120	≥ 80

Continued, in another order:

IC50 [1, 5] [nM]	SMILES	IC50 [1, 4] [nM]	IC50 [2] [nM]	IC50 [3] [nM]
29 to 91	O=C(CC1CCN(c2nc3ccccc3o2)CC1)N1CCC([C@H]2c3ncc(Br)cc3CCc3cc(Cl)cc(Br)c32)CC1 [Compound 4.0]	4.6 to 140	35 to 120	
29 to 91	O=C(CC1CCN(c2ccccn2)CC1)N1CCC([C@H]2c3ncc(Br)cc3CCc3cc(Cl)cc(Br)c32)CC1 [Compound 5.0]	4.6 to 140	35 to 120	≥ 80
